Assay results as given in paper PMC6131557, “Selective Cytotoxicity of Dihydroorotate Dehydrogenase Inhibitors to Human Cancer Cells Under Hypoxia and Nutrient-Deprived Conditions” (Frontiers in Pharmacology, 2018).

Columns and labels:
[1] = target: T1, human dihydroorotate dehydrogenase (HsDHODH) (Homo sapiens, UniProt Q02127); test: Inhibition of recombinant human DHODH enzyme activity; type: biochemical; details: recombinant human DHODH; purified enzyme fixed at 10 nM; read-out: IC50 (nM), inhibition of human DHODH
T1 construct: made in house

[2] = tested on: HBC-4; test: 39-cancer cell panel assay: HBC-4; type: cell-based; details: Homo sapiens, HBC4, Br
[3] = tested on: BSY-1; test: 39-cancer cell panel assay: BSY-1; type: cell-based; details: Homo sapiens, Br
[4] = tested on: HBC-5; test: 39-cancer cell panel assay: HBC-5; type: cell-based; details: Homo sapiens, HBC5, Br
[5] = tested on: MCF-7; test: 39-cancer cell panel assay: MCF-7; type: cell-based; details: Homo sapiens, MCF7, Br
[6] = tested on: MDA-MB-231; test: 39-cancer cell panel assay: MDA-MB-231; type: cell-based; details: Homo sapiens, Br
[7] = tested on: U251; test: 39-cancer cell panel assay: U251; type: cell-based; details: Homo sapiens, U-251, CNS
[8] = tested on: SF-268; test: 39-cancer cell panel assay: SF-268; type: cell-based; details: Homo sapiens, CNS
[9] = tested on: SF-295; test: 39-cancer cell panel assay: SF-295; type: cell-based; details: Homo sapiens, CNS
[10] = tested on: SF-539; test: 39-cancer cell panel assay: SF-539; type: cell-based; details: Homo sapiens, CNS
[11] = tested on: SNB-75; test: 39-cancer cell panel assay: SNB-75; type: cell-based; details: Homo sapiens, CNS
[12] = tested on: SNB-78; test: 39-cancer cell panel assay: SNB-78; type: cell-based; details: Homo sapiens, CNS
[13] = tested on: HCC2998; test: 39-cancer cell panel assay: HCC2998; type: cell-based; details: Homo sapiens, HCC 2998, Co
[14] = tested on: KM-12; test: 39-cancer cell panel assay: KM-12; type: cell-based, human; details: Co
[15] = tested on: HT-29; test: 39-cancer cell panel assay: HT-29; type: cell-based; details: Homo sapiens, Co
[16] = tested on: HCT-15; test: 39-cancer cell panel assay: HCT-15; type: cell-based; details: Homo sapiens, Co
[17] = tested on: HCT-116; test: 39-cancer cell panel assay: HCT-116; type: cell-based; details: Homo sapiens, Co
[18] = tested on: NCI-H23; test: 39-cancer cell panel assay: NCI-H23; type: cell-based; details: Homo sapiens, Lu
[19] = tested on: NCI-H226; test: 39-cancer cell panel assay: NCI-H226; type: cell-based; details: Homo sapiens, Lu
[20] = tested on: NCI-H522; test: 39-cancer cell panel assay: NCI-H522; type: cell-based; details: Homo sapiens, Lu
[21] = tested on: NCI-H460; test: 39-cancer cell panel assay: NCI-H460; type: cell-based; details: Homo sapiens, Lu
[22] = tested on: A549; test: 39-cancer cell panel assay: A549; type: cell-based; details: Homo sapiens, Lu
[23] = tested on: DMS273; test: 39-cancer cell panel assay: DMS273; type: cell-based; details: Homo sapiens, DMS-273, Lu
[24] = tested on: DMS114; test: 39-cancer cell panel assay: DMS114; type: cell-based; details: Homo sapiens, DMS-114, Lu
[25] = tested on: LOX-IMVI; test: 39-cancer cell panel assay: LOX-IMVI; type: cell-based; details: Homo sapiens, Me
[26] = tested on: OVCAR-3; test: 39-cancer cell panel assay: OVCAR-3; type: cell-based; details: Homo sapiens, Ov
[27] = tested on: OVCAR-4; test: 39-cancer cell panel assay: OVCAR-4; type: cell-based; details: Homo sapiens, Ov
[28] = tested on: OVCAR-5; test: 39-cancer cell panel assay: OVCAR-5; type: cell-based; details: Homo sapiens, Ov
[29] = tested on: OVCAR-8; test: 39-cancer cell panel assay: OVCAR-8; type: cell-based; details: Homo sapiens, Ov
[30] = tested on: SK-OV-3; test: 39-cancer cell panel assay: SK-OV-3; type: cell-based; details: Homo sapiens
[31] = tested on: RXF-631L; test: 39-cancer cell panel assay: RXF-631L; type: cell-based; details: Homo sapiens, Re
[32] = tested on: ACHN; test: 39-cancer cell panel assay: ACHN; type: cell-based; details: Homo sapiens, Re
[33] = tested on: St-4; test: 39-cancer cell panel assay: St-4; type: cell-based; details: Homo sapiens
[34] = tested on: MKN1; test: 39-cancer cell panel assay: MKN1; type: cell-based; details: Homo sapiens, MKN-1, St
[35] = tested on: MKN7; test: 39-cancer cell panel assay: MKN7; type: cell-based; details: Homo sapiens, MKN-7, St
[36] = tested on: MKN28; test: 39-cancer cell panel assay: MKN28; type: cell-based; details: Homo sapiens, MKN-28, St
[37] = tested on: MKN45; test: 39-cancer cell panel assay: MKN45; type: cell-based; details: Homo sapiens, MKN-45, St
[38] = tested on: MKN74; test: 39-cancer cell panel assay: MKN74; type: cell-based; details: Homo sapiens, MKN-74, St
[39] = tested on: DU-145; test: 39-cancer cell panel assay: DU-145; type: cell-based; details: Homo sapiens, Pro
[40] = tested on: PC-3; test: 39-cancer cell panel assay: PC-3; type: cell-based; details: Homo sapiens, Pro

T1 sequence (Q02127 whole entry): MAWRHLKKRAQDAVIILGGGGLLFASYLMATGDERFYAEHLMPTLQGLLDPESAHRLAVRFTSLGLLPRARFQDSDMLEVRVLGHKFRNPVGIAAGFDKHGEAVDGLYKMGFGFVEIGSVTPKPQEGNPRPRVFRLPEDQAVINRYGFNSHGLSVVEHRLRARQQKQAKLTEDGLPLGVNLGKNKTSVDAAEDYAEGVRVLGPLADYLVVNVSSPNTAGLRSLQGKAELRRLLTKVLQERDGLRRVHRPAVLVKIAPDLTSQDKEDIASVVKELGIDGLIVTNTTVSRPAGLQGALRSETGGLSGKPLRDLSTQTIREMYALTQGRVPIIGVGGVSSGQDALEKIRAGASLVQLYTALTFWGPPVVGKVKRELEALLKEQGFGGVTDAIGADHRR

SMILES	GI50 [2] [µM]	GI50 [3] [µM]	GI50 [4] [µM]	GI50 [5] [µM]	GI50 [6] [µM]	GI50 [7] [µM]	GI50 [8] [µM]	GI50 [9] [µM]	GI50 [10] [µM]	GI50 [11] [µM]	GI50 [12] [µM]	GI50 [13] [µM]	GI50 (μM) KM-12 [14] [µM]	GI50 [15] [µM]	GI50 [16] [µM]	GI50 [17] [µM]	GI50 [18] [µM]	GI50 [19] [µM]	GI50 [20] [µM]	GI50 [21] [µM]	other results
C/C(=C\Cc1c(O)c(Cl)c(C)c(C=O)c1O)CC/C=C(\C)C(C)O (stereo not shown) [Compound 6]	37	59	61	36	36	5.1	12	16	5.3	59	43	43	32.0	39	6.2	14	39	24	22	12	IC50 [1]: 63.9 ± 11 nM; GI50 [22]: 37 µM; GI50 [23]: 18 µM; GI50 [24]: 35 µM; GI50 [25]: 13 µM; GI50 [26]: 27 µM; GI50 [27]: 39 µM; GI50 [28]: 58 µM; GI50 [29]: 25 µM; GI50 [30]: 27 µM; GI50 [31]: 45 µM; GI50 [32]: 22 µM; GI50 [33]: 44 µM; GI50 [34]: 44 µM; GI50 [35]: 36 µM; GI50 [36]: 36 µM; GI50 [37]: 65 µM; GI50 [38]: 26 µM; GI50 [39]: 25 µM; GI50 [40]: 22 µM
C/C(=C\COC(=O)C(C)C)CC/C(C)=C/Cc1c(O)c(Cl)c(C)c(C=O)c1O [Compound 12]	9.4	16	18	6.7	10	4.9	9.5	16	2.2	28	28	16	10.0	5.8	1.9	4.6	13	8	4.2	4.5	GI50 [22]: 7.1 µM; GI50 [23]: 3.6 µM; GI50 [24]: 12 µM; GI50 [25]: 3.4 µM; GI50 [26]: 7.1 µM; GI50 [27]: 19 µM; GI50 [28]: 22 µM; GI50 [29]: 9.4 µM; GI50 [30]: 49 µM; GI50 [31]: 16 µM; GI50 [32]: 16 µM; GI50 [33]: 17 µM; GI50 [34]: 12 µM; GI50 [35]: 16 µM; GI50 [36]: 13 µM; GI50 [37]: 24 µM; GI50 [38]: 11 µM; GI50 [39]: 23 µM; GI50 [40]: 13 µM
